In this assay the target is T1, recombinant IL4I1 (Homo sapiens, UniProt Q96RQ9).
T1 construct: purchased R&D Systems 5684-AO-020
T1 sequence (Q96RQ9 22-567): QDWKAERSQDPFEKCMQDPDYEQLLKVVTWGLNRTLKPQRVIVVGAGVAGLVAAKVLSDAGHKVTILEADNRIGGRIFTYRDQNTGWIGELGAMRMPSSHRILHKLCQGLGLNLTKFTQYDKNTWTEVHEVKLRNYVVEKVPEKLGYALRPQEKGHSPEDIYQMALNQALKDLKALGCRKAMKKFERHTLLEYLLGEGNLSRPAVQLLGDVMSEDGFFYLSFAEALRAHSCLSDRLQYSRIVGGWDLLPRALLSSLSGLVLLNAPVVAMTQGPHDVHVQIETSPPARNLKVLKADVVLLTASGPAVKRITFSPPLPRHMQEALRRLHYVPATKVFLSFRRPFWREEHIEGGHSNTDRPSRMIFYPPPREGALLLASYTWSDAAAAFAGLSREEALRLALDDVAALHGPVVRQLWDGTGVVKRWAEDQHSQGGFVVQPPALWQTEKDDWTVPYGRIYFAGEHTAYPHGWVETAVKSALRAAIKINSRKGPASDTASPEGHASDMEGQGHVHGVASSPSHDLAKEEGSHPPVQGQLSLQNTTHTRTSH
Description: IL4I1 Enzymatic Assay (Amplex Red/HRP coupled H2O2 detection). The note with it: 240 min; four-hour pre-incubation with compound; 1 nM IL4I1, 1 mM each Phe/Tyr/Trp; ten-point titration; fluorescence readout; read-out: Potency EC50 (nM) (240 min). The format is biochemical. The method, then: Interleukin 4 inducible protein 1 (IL4I1) is an L-amino oxidase that catalyzes the oxidation of aromatic residues (Phe, Trp and Tyr): L-amino acid+H2O+O2→2-oxo acid+NH3+H2O2. Equal molar of H2O2 and the corresponding alpha-ketoacid are produced when IL4I1 and substrate are added. In this assay, the hydrogen peroxide generated by IL4I1 is then detected through a coupled reaction with Amplex Red (10-acetyl-3,7-dihydroxyphenoxazine) and […] (HRP) to produce Resorufin product that could be detected in the form of fluorescence signals. The assessment of the inhibitory effect of small molecules (EC50) on IL4I1 is measured by the effectiveness of the compounds to inhibit the production of H2O2.
Using this assay, the potency (EC50) of each compound was determined from a ten-point (1:3 serial dilution) titration curve using the following outlined procedure. To each well of a black flat-bottom Greiner (Cat #781076) 384 well-plate, 25 nL of compound (0.1% DMSO in final assay volume of 25 μL) was dispensed, followed by the addition of 12.5 μL of 1x assay buffer (50 mM Hepes 7.0 and 0.005% Tween20 (Sigma, Cat #P8341; low peroxide grade)) containing 2 nM of recombinant IL4I1 (R&D Systems, Cat #5684-AO-020). Plates were placed in an ambient temperature humidified chamber for a four-hour pre-incubation with compound. Subsequently, each reaction was initiated by the addition of 12.5 μL 1x assay buffer containing 2 mM of each aromatic amino acids (Phe/Tyr/Trp), 0.1 mM Amplex Red and 2 U/mL of HRP. The final reaction in each well of 25 μL consists of 1 nM of IL411, 1 mM of each residues (Phe, Tyr and Trp), 0.05 mM Amplex Red and 1 U/mL of HRP. It should be noted that the concentrations of Amplex Red and HRP used here are in excess such that the conversion of H2O2 to Resorufin product occurs instantaneously and non-rate limiting. Reactions were allowed to proceed for 120 minutes followed by fluorescence readout on a Spectramax with the following set parameters: 544 nm excitation/590 nm emission, 570 nm cutoff (EnVision is an alternative reader). Dose-response curves were generated by plotting percent effect (% product conversion; Y-axis) vs. Log10 compound concentrations (X-axis). EC50 values were calculated using a non-linear regression, four-parameters sigmoidal dose-response model and are shown in Table 16.
As usually defined, the EC50 is the concentration needed to bring the measured effect to its halfway point. In the case of `O=c1[nH]c2ccccc2n1Cc1ccc2c(c1)CCC2` [Example 55, 1-((2,3-dihydro-1H-inden-5-yl)methyl)-1,3-dihydro-2H-benzo[d]imidazol-2-one], the concentration giving a half-maximal response (EC50) is 0.8 nM.

For `O=c1[nH]c2ccccc2n1Cc1cccnc1` [Example 56, 1-(pyridin-3-ylmethyl)-1,3-dihydro-2H-benzo[d]imidazol-2-one], the EC50 is 2480 nM.

As to `CC(C)C1CC(Cn2c(=O)[nH]c3ccccc32)C1` (centres unmarked) [Example 57, 1-{[3-(propan-2-yl)cyclobutyl]methyl}-1,3-dihydro-2H-benzimidazol-2-one], the EC50 worked out at 3040 nM.

With `O=c1[nH]c2ccccc2n1CCC1CCCCC1` [Example 58, 1-(2-cyclohexylethyl)-1,3-dihydro-2H-benzimidazol-2-one], the EC50 was 936 nM.

Regarding `O=c1[nH]c2ccccc2n1CC1CCCOC1` (centres unmarked) [Example 59, 1-[(oxan-3-yl)methyl]-1,3-dihydro-2H-benzimidazol-2-one], the concentration giving a half-maximal response (EC50) was 2930 nM.

As for `O=c1[nH]c2ccccc2n1CCC1CCCO1` (centres unmarked) [Example 60, 1-[2-(oxolan-2-yl)ethyl]-1,3-dihydro-2H-benzimidazol-2-one], the concentration for a half-maximal effect (EC50) turned out to be 8660 nM.

For the compound `O=c1[nH]c2ccccc2n1C[C@@H]1C[C@H]1c1ccccc1` [Example 61, 1-{[(1R,2R)-2-phenylcyclopropyl]methyl}-1,3-dihydro-2H-benzimidazol-2-one], the 50% effective concentration (EC50) was 8 nM.

`O=c1[nH]c2ccccc2n1CCN1CCCCC1` [Example 62, 1-[2-(piperidin-1-yl)ethyl]-1,3-dihydro-2H-benzimidazol-2-one]: the EC50 stood at 1240 nM.

On to `CC(C)(C)c1ccnc(Cn2c(=O)[nH]c3ccccc32)c1` [Example 63, 1-[(4-tert-butylpyridin-2-yl)methyl]-1,3-dihydro-2H-benzimidazol-2-one], for which the EC50 stood at 4530 nM.

With `CC(=O)NCc1ccc(Cn2c(=O)[nH]c3ccc(Cl)cc32)cc1` [Example 64, N-(4-((6-chloro-2-oxo-2,3-dihydro-1H-benzo[d]imidazol-1-yl)methyl)benzyl)acetamide], the half-maximal effective concentration (EC50) stood at 56 nM.

`CC(=O)NCc1ccc(Cn2c(=O)[nH]c3ccc(C)cc32)cc1` [Example 65, N-(4-((6-methyl-2-oxo-2,3-dihydro-1H-benzo[d]imidazol-1-yl)methyl)benzyl)acetamide]: the EC50 came to 24 nM.

As for `CN(C)C(=O)Cc1ccc(Cn2c(=O)[nH]c3ccc(F)cc32)cc1` [Example 66, 2-(4-((6-fluoro-2-oxo-2,3-dihydro-1H-benzo[d]imidazol-1-yl)methyl)phenyl)-N,N-dimethylacetamide], the 50% effective concentration (EC50) was 16 nM.

Take `CNC(=O)Cc1ccc(Cn2c(=O)[nH]c3ccc(F)cc32)cc1` [Example 67, 2-(4-((6-fluoro-2-oxo-2,3-dihydro-1H-benzo[d]imidazol-1-yl)methyl)phenyl)-N-methylacetamide]: the EC50 is 9 nM.

As to `O=c1[nH]c2c(F)cccc2n1Cc1ccccc1` [Example 68, 1-benzyl-4-fluoro-1,3-dihydro-2H-benzo[d]imidazol-2-one], the EC50 was determined as 1390 nM.

For `O=c1[nH]c2cc(F)c(F)cc2n1Cc1ccccc1` [Example 69, 1-benzyl-5,6-difluoro-1,3-dihydro-2H-benzo[d]imidazol-2-one], the EC50 came out at 2270 nM.

Regarding `O=c1[nH]c2ccc(F)cc2n1Cc1ccc2c(c1)CCC2` [Example 70, 1-((2,3-dihydro-1H-inden-5-yl)methyl)-6-fluoro-1,3-dihydro-2H-benzo[d]imidazol-2-one], the EC50 was 14 nM.

As for `CC(C)Oc1cccc(Cn2c(=O)[nH]c3ccccc32)c1` [Example 71, 1-(3-isopropoxybenzyl)-1,3-dihydro-2H-benzo[d]imidazol-2-one], the 50% effective concentration (EC50) came out at 45 nM.

Take `Cc1cc(C)cc(Cn2c(=O)[nH]c3ccccc32)c1` [Example 72, 1-[(3,5-dimethylphenyl)methyl]-1,3-dihydro-2H-benzimidazol-2-one]: the half-maximal effective concentration (EC50) was determined as 6 nM.

Take `CC(=O)N(C)Cc1ccc(Cn2c(=O)[nH]c3ccccc32)cc1` [Example 73, N-methyl-N-(4-((2-oxo-2,3-dihydro-1H-benzo[d]imidazol-1-yl)methyl)benzyl)acetamide]: the concentration giving a half-maximal response (EC50) is 24 nM.

For the compound `O=C1OCCN1Cc1ccc(Cn2c(=O)[nH]c3ccccc32)cc1` [Example 74, 3-(4-((2-oxo-2,3-dihydro-1H-benzo[d]imidazol-1-yl)methyl)benzyl) oxazolidin-2-one], the EC50 was 7 nM.

Consider `CN(Cc1ccc(Cn2c(=O)[nH]c3ccccc32)cc1)S(=O)(=O)C1CC1` [Example 75, N-methyl-N-(4-((2-oxo-2,3-dihydro-1H-benzo[d]imidazol-1-yl)methyl)benzyl)cyclopropanesulfonamide], for which the 50% effective concentration (EC50) worked out at 16 nM.

`CC(=O)NCc1ccc(Cn2c(=O)n(C(F)F)c3ccccc32)cc1` [Example 76, N-(4-((3-(difluoromethyl)-2-oxo-2,3-dihydro-1H-benzo[d]imidazol-1-yl)methyl)benzyl)acetamide]: the EC50 is 9 nM.

As to `CS(=O)(=O)NCc1ccc(Cn2c(=O)n(C(F)F)c3ccccc32)cc1` [Example 77, N-(4-((3-(difluoromethyl)-2-oxo-2,3-dihydro-1H-benzo[d]imidazol-1-yl)methyl)benzyl)methanesulfonamide], the concentration giving a half-maximal response (EC50) is 6 nM.

Turning to `O=c1n(Cc2ccccc2)c2ccccc2n1C(F)F` [Example 78, 1-benzyl-3-(difluoromethyl)-1,3-dihydro-2H-benzo[d]imidazol-2-one], the concentration giving a half-maximal response (EC50) was 443 nM.

With `N#CC1(Cc2ncc(Cn3c(=O)[nH]c4ccccc43)cc2Cl)CCC1` [Example 79, 1-((3-chloro-5-((2-oxo-2,3-dihydro-1H-benzo[d]imidazol-1-yl)methyl)pyridin-2-yl)methyl)cyclobutane-1-carbonitrile], the EC50 was 113 nM.

For the compound `CN1CCN(c2cccc(Cn3c(=O)[nH]c4ccccc43)c2)CC1` [Example 80, 1-(3-(4-methylpiperazin-1-yl)benzyl)-1,3-dihydro-2H-benzo[d]imidazol-2-one], the EC50 was 27 nM.

As to `O=c1[nH]c2ccccc2n1Cc1ccc(Cn2ccnn2)cc1` [Example 82, 1-(4-((1H-1,2,3-triazol-1-yl)methyl)benzyl)-1H-benzo[d]imidazol-2 (3H)-one], the EC50 was determined as 48 nM.

In the case of `C[C@H]1COC(=O)N1Cc1ccc(Cn2c(=O)[nH]c3ccccc32)cc1` [Example 83, (S)-4-methyl-3-(4-((2-oxo-2,3-dihydro-1H-benzo[d]imidazol-1-yl)methyl)benzyl) oxazolidin-2-one], the EC50 worked out at 13 nM.

For `COc1ccccc1Cn1c(=O)[nH]c2ccc(C)cc21` [Example 86, 1-(2-methoxybenzyl)-6-methyl-1,3-dihydro-2H-benzo[d]imidazol-2-one], the EC50 came to 74 nM.

`CC(c1ccccc1)n1c(=O)[nH]c2ccccc21` (centres unmarked) [Example 87, 1-(1-phenylethyl)-1,3-dihydro-2H-benzo[d]imidazol-2-one]: the EC50 came out at 8900 nM.

As for `CC(C1CCCCC1)n1c(=O)[nH]c2ccccc21` (centres unmarked) [Example 88, 1-(1-cyclohexylethyl)-1,3-dihydro-2H-benzo[d]imidazol-2-one], the concentration for a half-maximal effect (EC50) turned out to be 10000 nM.

`Cn1c(=O)n(Cc2cccc(OC(F)(F)F)c2)c2ccccc21` [Example 89, 1-methyl-3-(3-(trifluoromethoxy)benzyl)-1,3-dihydro-2H-benzo[d]imidazol-2-one]: the EC50 was determined as 29 nM.

Source of the values: patent US12454525B2, “IL4I1 inhibitors and methods of use” (Merck Sharp & Dohme LLC, priority 2020, dated 2025).
